Assay type in all cases: cell-based
For one assay, the target named is T1, human P2X2/3 receptors (Homo sapiens, UniProt P56373+Q9UBL9).
T1 construct: expressed in transfected cells; host or cells: human astrocytoma 1321N1 (1312N1 [sic])
T1 sequence (P56373 1-397): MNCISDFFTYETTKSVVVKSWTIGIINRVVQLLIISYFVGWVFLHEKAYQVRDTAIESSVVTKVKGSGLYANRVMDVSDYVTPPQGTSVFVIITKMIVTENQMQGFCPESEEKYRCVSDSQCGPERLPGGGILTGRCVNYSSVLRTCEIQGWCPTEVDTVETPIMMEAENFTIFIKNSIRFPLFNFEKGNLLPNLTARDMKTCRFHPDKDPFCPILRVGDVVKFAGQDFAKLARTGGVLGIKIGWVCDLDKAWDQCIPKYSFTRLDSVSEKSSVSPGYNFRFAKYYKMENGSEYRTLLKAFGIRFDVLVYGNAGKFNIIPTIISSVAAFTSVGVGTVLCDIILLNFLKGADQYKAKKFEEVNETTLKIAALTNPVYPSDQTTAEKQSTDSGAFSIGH
T1 sequence (Q9UBL9 1-471): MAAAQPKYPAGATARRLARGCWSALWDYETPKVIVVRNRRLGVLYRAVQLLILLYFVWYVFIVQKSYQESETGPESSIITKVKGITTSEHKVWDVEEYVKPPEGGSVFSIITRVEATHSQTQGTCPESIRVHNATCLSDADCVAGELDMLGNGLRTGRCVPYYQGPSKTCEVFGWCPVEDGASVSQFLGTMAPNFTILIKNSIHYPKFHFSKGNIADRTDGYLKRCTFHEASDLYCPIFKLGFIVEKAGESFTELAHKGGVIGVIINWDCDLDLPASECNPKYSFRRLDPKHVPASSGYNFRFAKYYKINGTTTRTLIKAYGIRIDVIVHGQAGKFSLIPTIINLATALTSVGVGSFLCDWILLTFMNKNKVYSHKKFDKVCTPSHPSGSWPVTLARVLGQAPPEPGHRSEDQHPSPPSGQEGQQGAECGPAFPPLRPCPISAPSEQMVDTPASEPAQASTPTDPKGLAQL
The experiment in a line: Intracellular calcium measurement, antagonist activity at human P2X2/3 receptors (hP2X23 1321N1), Fluo8. To be noted: for IC50: column 4); 1321N1 cells, human P2X2/3, Fluo8, agonist ATP at EC50; read-out: 4) hP2X2/3 IC50 [nM] (1321N1); for hP2X23/hP2X3* Selectivity (1321N1): ratio of column 4) hP2X2/3 to column 3) hP2X3, 1321N1. The procedure, abridged: (§1)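 Inhibition of ATP-triggered Ca2+ transients is measured in 1321N1 cells expressing P2X3 homotrimers or P2X2/3 heterotrimers.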
On the technique in general: Calcium flux is commonly read through the fluorescence of an indicator in the cells.

Assay [1] concerns the target T2, human P2X3 receptor (Homo sapiens, UniProt P56373).
T2 sequence (P56373 1-397): T1 sequence (P56373 1-397)
Kind of assay: Intracellular calcium measurement to assess antagonist activity at human P2X3 receptors (hP2X3 FLIPR). The arrangement: expressed in transfected cells; host or cells: human astrocytoma 1321N1 (1312N1 [sic]). To be noted: head prints (1321N1); read-out: 1) hP2X3 IC50 [nM] (1321N1). On the procedure:
1) Intracellular Calcium Measurement to Assess Antagonist Activity at Human P2X3 Receptors (hP2X3 FLIPR)
A fluorescent imaging plate reader (FLEX/FLIPR station; Molecular Devices) was used to monitor intracellular calcium levels using the calcium-chelating dye Fluo-4 (Molecular Probes). The excitation and emission wavelengths used to monitor fluorescence were 470-495 nm and 515-575 nm, respectively. The human astrocytoma […] cells expressing purinergic receptors P2X3 (human) were plated at a density of 15,000 cells/well in collagen—coated 384-well plates approximately 20 hours before beginning the assay. […] The dye supernatant was removed and replaced with 45 μl probenecid buffer (Hank's balanced salt solution, 20 mM HEPES, 0.5 mM CaCl2, 0.5 mM MgCl2, 0.1% BSA, 5 mM probenecid, 10 mM D-glucose monohydrate, pH=7.4). The test compounds were added in a volume of 5 μl and allowed to incubate for 30 min at 37° C. The final assay DMSO concentration is 1%. […] The fluorescence was measured for an interval of 90 sec at 2 sec intervals and analyzed based on the increase in peak relative fluorescence units (RFU) compared to the basal fluorescence. Peak fluorescence was used to determine the response to agonist obtained at each concentration of test compound by the following equation: Response=100*(RFU(test compound)−RFU(control))/(RFU(DMSO)−RFU(control))
The Examples were tested in triplicates per plate and mean values were plotted in Excel XLFit to determine IC50 values at the human P2X3 and human P2X2/3 receptors, percentage of maximal inhibition and the Hill coefficients.

For assay [2], the target named is T2, human P2X3 receptor. Kind of assay: Intracellular calcium measurement, antagonist activity at human P2X3 receptors (hP2X3 1321N1), Fluo8. The arrangement: expressed in transfected cells; host or cells: human astrocytoma 1321N1 (1312N1 [sic]). To be noted: column 3); 1321N1 cells, human P2X3, Fluo8, agonist ATP at EC50. In outline:
as §1

Assay [3] deals with T2, human P2X3 receptor. The experiment in a line: Intracellular calcium measurement to assess antagonist activity at human P2X3 receptors (hP2X3 CHO), photina luminescence. The arrangement: expressed in transfected cells; host or cells: Chinese hamster ovary (CHO) cells. As to conditions: column 2), CHO cells, agonist α,β-methylene-ATP at EC50. In outline:
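CHO cells stably expressing human P2X3 and mitochondrial photina, plated the day before at 30 °C, then loaded 3 h at 37 °C in 2 mM Ca-tyrode buffer with 5 μg/ml coelenterazine. Agonist-evoked calcium luminescence read immediately; inhibition seen as signal decrease.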

The text below walks through data of US11319324B2, “Pyrazolo-pyrrolo-pyrimidine-dione derivatives as P2X3 inhibitors” (Bayer Aktiengesellschaft, priority 2017, dated 2022).

As to `COCC(C)N1Cc2c(n(CC(=O)Nc3ccc(F)cn3)c3cc(C(=O)N(C)C)nn3c2=O)C1=O` (racemic) [Example 140, 4-{2-[(5-fluoropyridin-2-yl)amino]-2-oxoethyl}-6-[(±)-1-methoxypropan-2-yl]-N,N-dimethyl-5,8-dioxo-5,6,7,8-tetrahydro-4H-pyrazolo[1,5-a]pyrrolo[3,4-d]pyrimidine-2-carboxamide], the IC50 at human P2X2/3 receptors is over 20900 nM; at human P2X3 receptor [1], 57 nM; on human P2X3 receptor [2] it was 115 nM; on human P2X3 receptor [3], 55 nM. The “hP2X23/hP2X3* Selectivity (1321N1)” value on human P2X2/3 receptors is listed as over 183.
With `COCC(C)N1Cc2c(n(CC(=O)Nc3ccc(F)cn3)c3cc(CO)nn3c2=O)C1=O` (racemic) [Example 141, N-(5-fluoropyridin-2-yl)-2-{2-(hydroxymethyl)-6-[(±)-1-methoxypropan-2-yl]-5,8-dioxo-5,6,7,8-tetrahydro-4H-pyrazolo[1,5-a]pyrrolo[3,4-d]pyrimidin-4-yl}acetamide], the IC50 on human P2X3 receptor [1] was found to be 125 nM.
In the case of `CC(C)(C)c1cc2n(CC(=O)Nc3ccc(F)cn3)c3c(c(=O)n2n1)CN(CCOCc1ccccc1)C3=O` [Example 34, 2-{6-[2-(Benzyloxy)ethyl]-2-tert-butyl-5,8-dioxo-5,6,7,8-tetrahydro-4H-pyrazolo[1,5-a]pyrrolo[3,4-d]pyrimidin-4-yl}-N-(5-fluoropyridin-2-yl)acetamide], at human P2X3 receptor [1], the IC50 worked out at 4 nM.
On to `Cc1cc2n(CC(=O)Nc3ccc(Cl)cn3)c3c(c(=O)n2n1)CN(C(C)C)C3=O` [Example 42], for which the IC50 on human P2X3 receptor [1] is 35 nM.
As for `Cc1ccc(NC(=O)Cn2c3c(c(=O)n4nc(C(C)(C)C)cc24)CN(C2COC2)C3=O)nc1` [Example 47], the IC50 at human P2X3 receptor [1] amounted to 1220 nM; at human P2X3 receptor [3], 1100 nM.
Consider `CCc1cc2n(CC(=O)Nc3ccc(F)cn3)c3c(c(=O)n2n1)CN(C1CCN(S(C)(=O)=O)C1)C3=O` (stereo not shown) [Example 272], for which the figures for the IC50 at human P2X2/3 receptors, on human P2X3 receptor [2] and at human P2X3 receptor [3] were over 32000 nM, 610 nM and 433 nM, respectively. The “hP2X23/hP2X3* Selectivity (1321N1)” value on human P2X2/3 receptors is on record as over 52.
In the case of `CC(C)N1Cc2c(n(CC(=O)Nc3ccc(F)cn3)c3cc(NCCO)nn3c2=O)C1=O` [Example 276, N-(5-fluoropyridin-2-yl)-2-{2-[(2-hydroxyethyl)amino]-5,8-dioxo-6-(propan-2-yl)-5,6,7,8-tetrahydro-4H-pyrazolo[1,5-a]pyrrolo[3,4-d]pyrimidin-4-yl}acetamide], the IC50 on human P2X2/3 receptors was over 20200 nM; on human P2X3 receptor [2], 91 nM; on human P2X3 receptor [3], 130 nM. In addition, at human P2X2/3 receptors, the “hP2X23/hP2X3* Selectivity (1321N1)” value is reported as over 223.
Turning to `CCc1cc2n(CC(=O)Nc3ccc(F)cn3)c3c(c(=O)n2n1)CN(C[C@@H]1CCCO1)C3=O` [Example 279, 2-{2-ethyl-5,8-dioxo-6-[(2S)-tetrahydrofuran-2-ylmethyl]-5,6,7,8-tetrahydro-4H-pyrazolo[1,5-a]pyrrolo[3,4-d]pyrimidin-4-yl}-N-(5-fluoropyridin-2-yl)acetamide], the IC50 at human P2X2/3 receptors is over 23000 nM; on human P2X3 receptor [2], 270 nM; at human P2X3 receptor [3], 210 nM. Also, the “hP2X23/hP2X3* Selectivity (1321N1)” value at human P2X2/3 receptors is over 85.
The like results for `CC(=O)Nc1cc2n(CC(=O)Nc3ccc(F)cn3)c3c(c(=O)n2n1)CN(C(C)C)C3=O` [Example 282, 2-[2-(acetylamino)-5,8-dioxo-6-(propan-2-yl)-5,6,7,8-tetrahydro-4H-pyrazolo[1,5-a]pyrrolo[3,4-d]pyrimidin-4-yl]-N-(5-fluoropyridin-2-yl)acetamide] were, in that order, over 32000 nM, 323 nM, 110 nM and over 99.
As to `CC(C)N1Cc2c(n(CC(=O)Nc3ccc(F)cn3)c3cc(NC(=O)C(F)F)nn3c2=O)C1=O` [Example 283], the values for the IC50 at human P2X2/3 receptors, on human P2X3 receptor [2] and on human P2X3 receptor [3] were over 32000 nM, 347 nM and 165 nM, respectively. Also, the “hP2X23/hP2X3* Selectivity (1321N1)” value at human P2X2/3 receptors is reported as over 92.
On the same counts, the results for `CC(C)N1Cc2c(n(CC(=O)Nc3ccc(F)cn3)c3cc(NC(=O)C4CCOCC4)nn3c2=O)C1=O` [Example 284] are 9350 nM, 47 nM, 57 nM and 201.
As to `COCC(=O)Nc1cc2n(CC(=O)Nc3ccc(F)cn3)c3c(c(=O)n2n1)CN(C(C)C)C3=O` [Example 285], the IC50 worked out at 12000 nM at human P2X2/3 receptors, 143 nM on human P2X3 receptor [2] and 110 nM on human P2X3 receptor [3]. Moreover, the “hP2X23/hP2X3* Selectivity (1321N1)” value on human P2X2/3 receptors was 84.
For the molecule `CC(C)N1Cc2c(n(CC(=O)Nc3ccc(F)cn3)c3cc(NC(=O)c4cnn[nH]4)nn3c2=O)C1=O` [Example 286], the results for the IC50 on human P2X2/3 receptors, on human P2X3 receptor [2] and on human P2X3 receptor [3] were 8200 nM, 33 nM and 22 nM, respectively. Moreover, the “hP2X23/hP2X3* Selectivity (1321N1)” value on human P2X2/3 receptors worked out at 248.
In the case of `CC(C)N1Cc2c(n(CC(=O)Nc3ccc(F)cn3)c3cc(NC(=O)COCc4ccccc4)nn3c2=O)C1=O` [Example 287, 2-(benzyloxy)-N-[4-{2-[(5-fluoropyridin-2-yl)amino]-2-oxoethyl}-5,8-dioxo-6-(propan-2-yl)-5,6,7,8-tetrahydro-4H-pyrazolo[1,5-a]pyrrolo[3,4-d]pyrimidin-2-yl]acetamide], the IC50 at human P2X2/3 receptors was 1800 nM; on human P2X3 receptor [2], 48 nM; on human P2X3 receptor [3], 32 nM. On human P2X2/3 receptors, the “hP2X23/hP2X3* Selectivity (1321N1)” value was determined as 38.
Consider `CC(C)N1Cc2c(n(CC(=O)Nc3ccc(F)cn3)c3cc(NC(=O)CO)nn3c2=O)C1=O` [Example 289, N-[4-{2-[(5-fluoropyridin-2-yl)amino]-2-oxoethyl}-5,8-dioxo-6-(propan-2-yl)-5,6,7,8-tetrahydro-4H-pyrazolo[1,5-a]pyrrolo[3,4-d]pyrimidin-2-yl]-2-hydroxyacetamide], for which the IC50 on human P2X2/3 receptors was over 32000 nM; on human P2X3 receptor [2], 587 nM; on human P2X3 receptor [3] it was 245 nM. Also, the “hP2X23/hP2X3* Selectivity (1321N1)” value at human P2X2/3 receptors is recorded as over 55.
`CC(C)NC(=O)Nc1cc2n(CC(=O)Nc3ccc(F)cn3)c3c(c(=O)n2n1)CN(C(C)C)C3=O` [Example 290, 2-[5,8-dioxo-6-(propan-2-yl)-2-{[(propan-2-yl)carbamoyl]amino}-5,6,7,8-tetrahydro-4H-pyrazolo[1,5-a]pyrrolo[3,4-d]pyrimidin-4-yl]-N-(5-fluoropyridin-2-yl)acetamide]: the values for the IC50 on human P2X2/3 receptors, at human P2X3 receptor [2] and on human P2X3 receptor [3] were 4650 nM, 105 nM and 115 nM, respectively. Further, the “hP2X23/hP2X3* Selectivity (1321N1)” value on human P2X2/3 receptors was 44.
The like results for `CCc1cc2n(CC(=O)Nc3ccc(F)cn3)c3c(c(=O)n2n1)CN(CC(=O)NC(C)C)C3=O` [Example 292] were, in that order, over 32000 nM, 120 nM, 112 nM and over 267.
